Results: paper PMC11030672 (Cancer Immunology, Immunotherapy : CII, 2008)

How the values were obtained:
HLA-A3 = assay: Assembly assay for peptide binding to MHC class I molecules; conditions: T2-A3 cells
T2-A3 cells = assay: 51Cr-release cytotoxicity of T cell clone 9 against peptide-pulsed T2-A3 cells; type: cell-based; conditions: peptide 10 μM; E:T ratios 9:1, 3:1, 1:1, 0,3:1; duplicates
[1] = test system: HLA-A3+ melanoma cell line FM3; assay: 51Cr-release cytotoxicity of clone 9 against FM3 melanoma cells; type: cell-based; conditions: unlabeled T2-A3 cells pulsed with 10 μM peptide; inhibitor to target ratio 20:1; Fig. 4b, c

Sequence | binding to HLA-A3 (in words) (HLA-A3) | lysis of peptide-pulsed T2-A3 cells by clone 9 (T2-A3 cells) | cold target inhibition of FM3 killing by clone 9 [1]
ILRGSVAHK [Influenza NP265–273, reference compound] | high affinity | – | –
RLGLQVRKNK [Rho1L2] | bound with intermediate affinity | effectively lysed | completely abrogated the killing of FM3 melanoma cells
RAGLQVRKNK [Rho1] | only bound very weakly to HLA-A3 | effectively lysed | –
